Laboratory results as given in patent publication US20060069132A1, “Azolecarboxamide herbicides” (priority 2004, published 2006).

Tests used:
Surinam grass = assay: Test B pre-/postemergence herbicide test; assay type: in vivo, Urochloa decumbens
Summary of the method: (§1)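 Herbicidal effect was judged by eye on a 0–100 scale after plants stood 13 to 15 days in the greenhouse following pre- or postemergence treatment with surfactant-containing formulations.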

giant foxtail [1] = assay: Test B pre-/postemergence herbicide test; assay type: in vivo, Setaria faberi
Summary of the method: as §1

pigweed = assay: Test B pre-/postemergence herbicide test; assay type: in vivo, Amaranthus retroflexus
Summary of the method: as §1

large crabgrass [2] = assay: Test A pre-/postemergence herbicide test; assay type: in vivo, Digitaria sanguinalis; conditions: for Plant response rating, Crabgrass, Large: Postemergence; for Crabgrass, Large plant response rating: Preemergence
Summary of the method: (§2)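 Pre: seeded sandy loam, directed soil spray, compound in non-phytotoxic solvent + surfactant. Post: 1–2-leaf plants (2–10 cm), sprayed to runoff. Greenhouse ~10 d; visual injury vs untreated, 0–100 scale.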

morningglory [3] = assay: Test B pre-/postemergence herbicide test; assay type: in vivo, Ipomoea coccinea
Summary of the method: (§3)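 Evaluation is visual, comparing treated with control plants on a scale where 0 means no effect and 100 means full control. Treatments were preemergence, or postemergence on seedlings 2–18 cm tall, and held 13–15 days in the greenhouse.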

redroot pigweed = assay: Test A pre-/postemergence herbicide test; assay type: in vivo, Amaranthus retroflexus; conditions: for Plant response rating, Pigweed: Postemergence; for Pigweed plant response rating: Preemergence
Summary of the method: as §2

wild oat = assay: Test B postemergence herbicide test; assay type: in vivo, Avena fatua; conditions: scale 0 (no effect) to 100 (complete control)
Summary of the method: (§4)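 Postemergence plants were sprayed with formulated test chemicals at 2 to 18 cm height (1- to 4-leaf stage); paddy species were grown to the 2-leaf stage. After 13 to 15 days in a greenhouse, injury was rated visually against untreated controls on a 0–100 scale (0 = no effect, 100 = complete control).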

cocklebur = assay: Test B pre-/postemergence herbicide test; assay type: in vivo, Xanthium strumarium
Summary of the method: as §3

lambsquarters = assay: Test B pre-/postemergence herbicide test; assay type: in vivo, Chenopodium album
Summary of the method: as §1

blackgrass = assay: Test B postemergence herbicide test; assay type: in vivo, Alopecurus myosuroides; conditions: scale 0 (no effect) to 100 (complete control)
Summary of the method: (§5)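 Each value is a visual 0–100 response rating taken against controls 13 to 15 days after treatment in the greenhouse. Plants received formulated chemical postemergence at the 1- to 4-leaf stage or, in flooded paddy, at the 2-leaf stage.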

rice [4] = assay: Test B flooded paddy test; assay type: in vivo, Oryza sativa; conditions: 1000 g ai/ha, visual rating, scale 0 to 100 (0 no effect, 100 complete control), 13 to 15 days
Summary of the method: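 Treated at 2-leaf (paddy) or 1–4-leaf, 2–18 cm (postemergence); greenhouse 13–15 d; visual score vs control, 0 none to 100 complete control; dash = not tested.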

morningglory [5] = assay: Test A pre-/postemergence herbicide test; assay type: in vivo, Ipomoea spp.; conditions: for Plant response rating, Morningglory: Postemergence; for Morningglory plant response rating: Preemergence
Summary of the method: as §2

corn = assay: Test B pre-/postemergence herbicide test; assay type: in vivo, Zea mays
Summary of the method: as §1

[6] = tested on: small flower umbrella sedge; assay: Test B flooded paddy test; assay type: in vivo, Cyperus difformis; conditions: 1000 g ai/ha, visual rating, scale 0 to 100 (0 no effect, 100 complete control), 13 to 15 days
Summary of the method: as §5

rice [7] = assay: Test B pre-/postemergence herbicide test; assay type: in vivo, Oryza sativa; conditions: preemergence, 125 g ai/ha; 0 to 100 scale, 0 is no effect, 100 is complete control
Summary of the method: as §1

giant foxtail [8] = assay: Test A pre-/postemergence herbicide test; assay type: in vivo, Setaria faberi; conditions: for Plant response rating, Foxtail, Giant: Postemergence; for Foxtail, Giant plant response rating: Preemergence
Summary of the method: as §2

barnyardgrass [9] = assay: Test B flooded paddy test; assay type: in vivo, Echinochloa crus-galli; conditions: 1000 g ai/ha, visual rating, scale 0 to 100 (0 no effect, 100 complete control), 13 to 15 days
Summary of the method: as §5

velvetleaf [10] = assay: Test B pre-/postemergence herbicide test; assay type: in vivo, Abutilon theophrasti
Summary of the method: as §1

ducksalad = assay: Test B flooded paddy test; assay type: in vivo, Heteranthera limosa; conditions: 1000 g ai/ha, visual rating, scale 0 to 100 (0 no effect, 100 complete control), 13 to 15 days
Summary of the method: as §5

barnyardgrass [11] = assay: Test A pre-/postemergence herbicide test; assay type: in vivo, Echinochloa crus-galli; conditions: for Plant response rating, Barnyardgrass: Postemergence; for Barnyardgrass plant response rating: Preemergence
Summary of the method: as §2

large crabgrass [12] = assay: Test B pre-/postemergence herbicide test; assay type: in vivo, Digitaria sanguinalis
Summary of the method: as §1

wheat = assay: Test B postemergence herbicide test; assay type: in vivo, Triticum aestivum; design: key to Wheat plant response rating: 0 = no effect, 100 = complete control; conditions: scale 0 (no effect) to 100 (complete control)
Summary of the method: as §4

barnyardgrass [13] = assay: Test B pre-/postemergence herbicide test; assay type: in vivo, Echinochloa crus-galli
Summary of the method: as §3

velvetleaf [14] = assay: Test A pre-/postemergence herbicide test; assay type: in vivo, Abutilon theophrasti; conditions: for Velvetleaf plant response rating: Preemergence, visual rating, 0 to 100 scale (0 no effect, 100 complete control)
Summary of the method: as §2

[15] = Postemergence, 500 g ai/ha, visual rating after 13 to 15 days, scale 0 (no effect) to 100 (complete control)
[16] = postemergence, 125 g ai/ha, visual rating, scale 0 (no effect) to 100 (complete control)
[17] = preemergence, 125 g ai/ha, 0 to 100 scale, 0 is no effect, 100 is complete control
[18] = Preemergence, 500 g ai/ha, scale 0 to 100
[19] = 500 g ai/ha, 0 to 100 scale, 0 no effect, 100 complete control
[20] = 2000 g ai/ha, 0 to 100 scale, 0 no effect, 100 complete control
[21] = 500 g ai/ha, visual rating, 0 to 100 scale (0 no effect, 100 complete control)
[22] = Postemergence, 500 g ai/ha, visual rating after 13 to 15 days
[23] = postemergence, 125 g ai/ha, visual rating

## CCn1nc(C(C)(C)C)cc1C(=O)Nc1cc(C(=O)OC(C)(C)C)ccc1F [Compound 71]
Surinam grass; [15]
  Plant response rating, Surinam Grass: 10
Surinam grass; [16]
  Surinam Grass plant response rating: 0
Surinam grass; [17]
  Plant response rating, Surinam Grass: 0
Giant foxtail [1]; [15]
  Plant response rating, Foxtail, Giant: 10
Giant foxtail [1]; [18]
  Foxtail, Giant plant response rating: 0
Giant foxtail [1]; [16]
  Foxtail, Giant plant response rating: 0
Giant foxtail [1]; [17]
  Plant response rating, Foxtail, Giant: 0
pigweed; [15]
  Plant response rating, Pigweed: 20
pigweed; [16]
  Pigweed plant response rating: 0
pigweed; [17]
  Plant response rating, Pigweed: 0
Large crabgrass [2]; [19]
  Plant response rating, Crabgrass, Large: 0
Large crabgrass [2]; [20]
  Plant response rating, Crabgrass, Large: 0
  Crabgrass, Large plant response rating: 0
Large crabgrass [2]; [21]
  Crabgrass, Large plant response rating: 0
Morningglory [3]; [15]
  Plant response rating, Morningglory: 0
Morningglory [3]; [16]
  Morningglory plant response rating: 0
Morningglory [3]; [17]
  Plant response rating, Morningglory: 0
Redroot pigweed; [19]
  Plant response rating, Pigweed: 0
Redroot pigweed; [20]
  Plant response rating, Pigweed: 0
  Pigweed plant response rating: 0
Redroot pigweed; [21]
  Pigweed plant response rating: 0
Wild oat; [22]
  Plant response rating, Oat, Wild: 0
Wild oat; [23]
  Oat, Wild plant response rating: 0
cocklebur; [15]
  Plant response rating, Cocklebur: 0
cocklebur; [18]
  Cocklebur plant response rating: 0
cocklebur; [16]
  Cocklebur plant response rating: 0
cocklebur; [17]
  Plant response rating, Cocklebur: 0
lambsquarters; [15]
  Plant response rating, Lambsquarters: 20
lambsquarters; [16]
  Lambsquarters plant response rating: 0
lambsquarters; [17]
  Plant response rating, Lambsquarters: 0
blackgrass; [22]
  Plant response rating, Blackgrass: 0
blackgrass; [23]
  Blackgrass plant response rating: 0
Rice [4]
  Rice plant response rating: 0
Morningglory [5]; [19]
  Plant response rating, Morningglory: 0
Morningglory [5]; [20]
  Plant response rating, Morningglory: 0
  Morningglory plant response rating: 0
Morningglory [5]; [21]
  Morningglory plant response rating: 0
corn; [15]
  Plant response rating, Corn: 10
corn; [18]
  Corn plant response rating: 0
corn; [16]
  Corn plant response rating: 0
corn; [17]
  Plant response rating, Corn: 0
[6]
  Sedge, Umbrella plant response rating: 0
Rice [7]
  Plant response rating, Rice: 0
Giant foxtail [8]; [19]
  Plant response rating, Foxtail, Giant: 0
Giant foxtail [8]; [20]
  Plant response rating, Foxtail, Giant: 0
  Foxtail, Giant plant response rating: 0
Giant foxtail [8]; [21]
  Foxtail, Giant plant response rating: 0
Barnyardgrass [9]
  Barnyardgrass plant response rating: 0
Velvetleaf [10]; [15]
  Plant response rating, Velvetleaf: 0
Velvetleaf [10]; [16]
  Velvetleaf plant response rating: 0
Velvetleaf [10]; [17]
  Plant response rating, Velvetleaf: 0
ducksalad
  Ducksalad plant response rating: 0
Barnyardgrass [11]; [19]
  Plant response rating, Barnyardgrass: 0
Barnyardgrass [11]; [20]
  Plant response rating, Barnyardgrass: 0
  Barnyardgrass plant response rating: 0
Barnyardgrass [11]; [21]
  Barnyardgrass plant response rating: 0
Large crabgrass [12]; [15]
  Plant response rating, Crabgrass, Large: 10
Large crabgrass [12]; [18]
  Crabgrass, Large plant response rating: 0
Large crabgrass [12]; [16]
  Crabgrass, Large plant response rating: 0
Large crabgrass [12]; [17]
  Plant response rating, Crabgrass, Large: 0
wheat; [22]
  Plant response rating, Wheat: 0
wheat; [23]
  Wheat plant response rating: 0
Barnyardgrass [13]; [15]
  Plant response rating, Barnyardgrass: 10
Barnyardgrass [13]; [18]
  Barnyardgrass plant response rating: 0
Barnyardgrass [13]; [16]
  Barnyardgrass plant response rating: 0
Barnyardgrass [13]; [17]
  Plant response rating, Barnyardgrass: 0
Velvetleaf [14]; Postemergence, 2000 g ai/ha, 0 to 100 scale, 0 no effect, 100 complete control
  Plant response rating, Velvetleaf: 0
Velvetleaf [14]; 500 g ai/ha
  Velvetleaf plant response rating: 0
Velvetleaf [14]; 2000 g ai/ha
  Velvetleaf plant response rating: 0
